Consider 25 compounds from patent US10344025B2, “GLS1 inhibitors for treating disease” (Board of Regents, The University of Texas System, priority 2014, dated 2019).

For experiment [1], the target named is purified recombinant human GAC (GLS1) (Homo sapiens (Human), UniProt O94925). Put plainly: GLS1 Enzymatic Activity Assay (dual-coupled enzymatic assay, resorufin/Amplex UltraRed readout).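 Also: glutamate from GAC coupled via glutamate oxidase and peroxidase to resorufin, read as fluorescence (ex 530, em 590 nm) kinetically or at 20 min, four-parameter logistic IC50 fit.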 In kind it is biochemical.
Sequence of purified recombinant human GAC (GLS1) (O94925 other isoform, or with tags, fused parts or gaps): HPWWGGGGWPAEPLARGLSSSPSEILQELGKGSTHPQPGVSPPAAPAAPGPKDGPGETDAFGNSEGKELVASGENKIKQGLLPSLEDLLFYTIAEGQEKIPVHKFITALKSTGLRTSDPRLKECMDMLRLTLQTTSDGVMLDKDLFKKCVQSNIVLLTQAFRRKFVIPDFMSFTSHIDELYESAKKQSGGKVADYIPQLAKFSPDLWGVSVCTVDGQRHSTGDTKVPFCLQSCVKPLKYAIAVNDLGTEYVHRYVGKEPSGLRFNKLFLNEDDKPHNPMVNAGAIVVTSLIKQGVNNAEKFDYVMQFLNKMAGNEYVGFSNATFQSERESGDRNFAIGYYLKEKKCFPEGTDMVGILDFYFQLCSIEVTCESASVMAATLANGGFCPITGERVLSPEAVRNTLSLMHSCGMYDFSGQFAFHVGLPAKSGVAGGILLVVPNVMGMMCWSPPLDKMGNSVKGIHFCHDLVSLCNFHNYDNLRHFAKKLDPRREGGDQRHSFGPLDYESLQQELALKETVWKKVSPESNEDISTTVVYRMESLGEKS
The next experiment deals with A549 cells. Description: Proliferation Assay (A549 viability, Cell Titer Fluor, 72 hours). Particulars: Homo sapiens. The class given is cell-based. Put shortly: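 A549 cells seeded at 1000 cells/well, rested 24 h, then exposed to compound in 0.5% DMSO for 72 h at 37 °C. Viability read by Cell Titer Fluor fluorescence; IC50 from four-parameter logistic fit.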

SMILES strings stand for the structures. pEC50, pIC50: −log10 of the molar value. Bounds are passed on as bounds.

As usually defined, the pIC50 is the negative decadic logarithm of the IC50, by convention in mol/L. What is called pEC50 is −log10 of the EC50, conventionally taken in molar units. The low end stands for a high EC50, the high end for a low EC50. For `CNC(=O)c1cn(CCCCc2ccc(NC(=O)CN3CCN(Cc4cccc(OC(F)(F)F)c4)CC3=O)nn2)nn1` [Example 247, N-methyl-1-(4-(6-(2-(2-oxo-4-(3-(trifluoromethoxy)benzyl)piperazin-1-yl)acetamido)pyridazin-3-yl)butyl)-1H-1,2,3-triazole-4-carboxamide], the pIC50 in experiment [1] is over 7.00. This compound also showed a pEC50 in the experiment on A549 cells (A549, 72 h) of over 7.00.

On to `CNC(=O)c1cn(CCCCc2ccc(NC(=O)CN3CCN(c4ccccc4OC(F)(F)F)CC3=O)nn2)nn1` [Example 249, N-methyl-1-(4-(6-(2-(2-oxo-4-(2-(trifluoromethoxy)phenyl)piperazin-1-yl)acetamido)pyridazin-3-yl)butyl)-1H-1,2,3-triazole-4-carboxamide], for which, in experiment [1], the pIC50 is over 7.00. The same compound gave a pEC50 with A549 cells (A549, 72 h) of over 7.00.

For `O=C(Cc1ccccn1)Nc1nnc(CC[C@@H](F)Cn2cc(C(=O)NCc3cc(C(F)(F)F)ccn3)nn2)s1` [Example 250, (R)-1-(2-fluoro-4-(5-(2-(pyridin-2-yl)acetamido)-1,3,4-thiadiazol-2-yl)butyl)-N-((4-(trifluoromethyl)pyridin-2-yl)methyl)-1H-1,2,3-triazole-4-carboxamide], the pIC50 in experiment [1] was over 7.00. Further, the pEC50 with A549 cells is over 7.00.

`CNC(=O)c1cn(CC(F)CCc2ccc(NC(=O)Cc3cc(OC4CCC4)ccn3)nn2)nn1` (centres unmarked) [Example 251, 1-(4-(6-(2-(4-cyclobutoxypyridin-2-yl)acetamido)pyridazin-3-yl)-2-fluorobutyl)-N-methyl-1H-1,2,3-triazole-4-carboxamide 2,2,2-trifluoroacetate]: the pIC50 in experiment [1] is over 7.00. In addition, the pEC50 in the experiment with A549 cells (A549, 72 h) was over 7.00.

For the compound `CNC(=O)c1cn(CC(F)CCc2ccc(NC(=O)Cc3cc(C4CCOCC4)ccn3)nn2)nn1` (centres unmarked) [Example 253, 1-(2-fluoro-4-(6-(2-(4-(tetrahydro-2H-pyran-4-yl)pyridin-2-yl)acetamido)pyridazin-3-yl)butyl)-N-methyl-1H-1,2,3-triazole-4-carboxamide], the pIC50 in experiment [1] is over 7.00. In the experiment on A549 cells (A549, 72 h), this compound gave a pEC50 of over 7.00.

`CNC(=O)c1cn(CCCCc2ccc(NC(=O)Cc3cc(C(C)C(F)(F)F)ccn3)nn2)nn1` (centres unmarked) [Example 258, N-methyl-1-(4-(6-(2-(4-(1,1,1-trifluoropropan-2-yl)pyridin-2-yl)acetamido)pyridazin-3-yl)butyl)-1H-1,2,3-triazole-4-carboxamide]: the pIC50 in experiment [1] was over 7.00. In addition, the pEC50 with A549 cells (A549, 72 h) is over 7.00.

Turning to `CNC(=O)c1cn(CC(F)CCc2ccc(NC(=O)Cc3cc(OCC(F)(F)F)ccn3)nn2)nn1` (centres unmarked) [Example 262, 1-(2-Fluoro-4-(6-(2-(4-(2,2,2-trifluoroethoxy)pyridin-2-yl)acetamido)pyridazin-3-yl)butyl)-N-methyl-1H-1,2,3-triazole-4-carboxamide], in experiment [1], the pIC50 was over 7.00. Also, in the experiment on A549 cells, the pEC50 was over 7.00.

With `CNC(=O)c1cn(CC(F)CCc2ccc(NC(=O)Cc3cc(C(F)(F)F)cc(C4CC4)n3)nn2)nn1` (centres unmarked) [Example 263, 1-(4-(6-(2-(6-cyclopropyl-4-(trifluoromethyl)pyridin-2-yl)acetamido)pyridazin-3-yl)-2-fluorobutyl)-N-methyl-1H-1,2,3-triazole-4-carboxamide], the pIC50 in experiment [1] is over 7.00. The same compound showed a pEC50 in the experiment with A549 cells (A549, 72 h) of over 7.00.

Take `CNC(=O)c1cn(CC(F)CCc2nnc(NC(=O)Cc3cc(C4CCOCC4)ccn3)s2)nn1` (centres unmarked) [Example 265, 1-(2-fluoro-4-(5-(2-(4-(tetrahydro-2H-pyran-4-yl)pyridin-2-yl)acetamido)-1,3,4-thiadiazol-2-yl)butyl)-N-methyl-1H-1,2,3-triazole-4-carboxamide]: in experiment [1], the pIC50 was over 7.00. The same compound had a pEC50 in the experiment on A549 cells (A549, 72 h) of over 7.00.

With `CNC(=O)c1cn(C[C@H](F)CCc2ccc(NC(=O)Cc3cc(C(F)(F)C4CC4)ccn3)nn2)nn1` [Example 267, (R)-1-(4-(6-(2-(4-(cyclopropyldifluoromethyl)pyridin-2-yl)acetamido)pyridazin-3-yl)-2-fluorobutyl)-N-methyl-1H-1,2,3-triazole-4-carboxamide], in experiment [1], the pIC50 was over 7.00. The same compound showed a pEC50 with A549 cells (A549, 72 h) of over 7.00.

Consider `CNC(=O)c1cn(C[C@H](F)CCc2ccc(NC(=O)Cc3cc(OC4CC(OCC(F)(F)F)C4)ccn3)nn2)nn1` (stereo partly drawn) [Example 269, (R)-1-(2-fluoro-4-(6-(2-(4-(3-(2,2,2-trifluoroethoxy)cyclobutoxy)pyridin-2-yl)acetamido)pyridazin-3-yl)butyl)-N-methyl-1H-1,2,3-triazole-4-carboxamide], for which the pIC50 in experiment [1] was over 7.00. This compound also gave a pEC50 in the experiment on A549 cells (A549, 72 h) of over 7.00.

Take `CNC(=O)c1cn(C[C@H](F)CCc2ccc(NC(=O)Cc3cn(-c4cccc(OC(F)(F)F)c4)cn3)nn2)nn1` [Example 270, (R)-1-(2-fluoro-4-(6-(2-(1-(3-(trifluoromethoxy)phenyl)-1H-imidazol-4-yl)acetamido)pyridazin-3-yl)butyl)-N-methyl-1H-1,2,3-triazole-4-carboxamide]: in experiment [1], the pIC50 was over 7.00. The pEC50 in the experiment with A549 cells (A549, 72 h) is over 7.00.

Consider `CNC(=O)c1cn(C[C@H](F)CCc2ccc(NC(=O)Cc3cc(OC4CCOCC4)ccn3)nn2)nn1` [Example 271, (R)-1-(2-fluoro-4-(6-(2-(4-((tetrahydro-2H-pyran-4-yl)oxy)pyridin-2-yl)acetamido)pyridazin-3-yl)butyl)-N-methyl-1H-1,2,3-triazole-4-carboxamide], for which, in experiment [1], the pIC50 was over 7.00. Besides, the pEC50 in the experiment on A549 cells (A549, 72 h) was over 7.00.

Take `CNC(=O)c1cn(C[C@H](F)CCc2ccc(NC(=O)Cc3ccccc3)nn2)nn1` [Example 273, (R)-1-(2-fluoro-4-(6-(2-phenylacetamido)pyridazin-3-yl)butyl)-N-methyl-1H-1,2,3-triazole-4-carboxamide]: the pIC50 in experiment [1] is over 7.00. This compound showed a pEC50 in the experiment with A549 cells (A549, 72 h) of over 7.00.

As for `CNC(=O)c1cn(CC(F)CCc2ccc(NC(=O)Cc3cc(OC(F)F)ccn3)nn2)nn1` (centres unmarked) [Example 274, 1-(4-(6-(2-(4-(difluoromethoxy)pyridin-2-yl)acetamido)pyridazin-3-yl)-2-fluorobutyl)-N-methyl-1H-1,2,3-triazole-4-carboxamide], the pIC50 in experiment [1] is over 7.00. Also, in the experiment with A549 cells (A549, 72 h), the pEC50 is over 7.00.

`CNC(=O)c1cn(C[C@H](F)CCc2ccc(NC(=O)Cc3cc(C4CC4)ccn3)nn2)nn1` [Example 275, (R)-1-(4-(6-(2-(4-cyclopropylpyridin-2-yl)acetamido)pyridazin-3-yl)-2-fluorobutyl)-N-methyl-1H-1,2,3-triazole-4-carboxamide]: the pIC50 in experiment [1] is over 7.00. Moreover, the pEC50 in the experiment on A549 cells (A549, 72 h) was over 7.00.

For `O=C(CC1CC1)Nc1cn(CCCCn2cc(C(=O)NCc3cccc(OC(F)(F)F)c3)nn2)nn1` [Example 276, 1-{4-[4-(2-cyclopropylacetamido)-1H-1,2,3-triazol-1-yl]butyl}-N-{[3-(trifluoromethoxy)phenyl]methyl}-1H-1,2,3-triazole-4-carboxamide], the pIC50 in experiment [1] is 6.30 to 7.00. The compound further gave a pEC50 with A549 cells (A549, 72 h) of 6.30 to 7.00.

In the case of `O=C(CC1CCCC1)Nc1cn(CCCCn2cc(C(=O)NCc3ccccn3)nn2)nn1` [Example 277, 1-{4-[4-(2-cyclopentylacetamido)-1H-1,2,3-triazol-1-yl]butyl}-N-(pyridin-2-ylmethyl)-1H-1,2,3-triazole-4-carboxamide], the pIC50 in experiment [1] is 6.30 to 7.00. The same compound showed a pEC50 with A549 cells (A549, 72 h) of 5.30 to 6.30.

`O=C(Cc1cccc(OC(F)(F)F)c1)Nc1cn(CCCCn2cc(C(=O)NCc3ccccn3)nn2)nn1` [Example 279, N-(pyridin-2-ylmethyl)-1-[4-(4-{2-[3-(trifluoromethoxy)phenyl]acetamido}-1H-1,2,3-triazol-1-yl)butyl]-1H-1,2,3-triazole-4-carboxamide]: the pIC50 in experiment [1] was over 7.00. In the experiment on A549 cells (A549, 72 h), this compound had a pEC50 of 6.30 to 7.00.

For the compound `O=C(CC1CCCCC1)Nc1cn(CCCCn2cc(C(=O)NCc3ccccn3)nn2)nn1` [Example 280, 1-{4-[4-(2-cyclohexylacetamido)-1H-1,2,3-triazol-1-yl]butyl}-N-(pyridin-2-ylmethyl)-1H-1,2,3-triazole-4-carboxamide], in experiment [1], the pIC50 was 6.30 to 7.00. This compound showed a pEC50 in the experiment with A549 cells (A549, 72 h) of 5.30 to 6.30.

Turning to `O=C(Cc1cccnc1)Nc1cn(CCCCn2cc(C(=O)NCC3CCCCC3)nn2)nn1` [Example 284, N-(cyclohexylmethyl)-1-(4-{4-[2-(pyridin-3-yl)acetamido]-1H-1,2,3-triazol-1-yl}butyl)-1H-1,2,3-triazole-4-carboxamide], the pIC50 in experiment [1] was 6.30 to 7.00. Further, the pEC50 in the experiment on A549 cells (A549, 72 h) is 5.30 to 6.30.

For `O=C(Cc1ccccn1)Nc1cn(CCCCn2cc(C(=O)NCC3CCCCC3)nn2)nn1` [Example 285, N-(cyclohexylmethyl)-1-(4-{4-[2-(pyridin-2-yl)acetamido]-1H-1,2,3-triazol-1-yl}butyl)-1H-1,2,3-triazole-4-carboxamide], in experiment [1], the pIC50 was 5.30 to 6.30. The pEC50 with A549 cells (A549, 72 h) is 5.30 to 6.30.

For `O=C(Cc1cccc(OC(F)(F)F)c1)Nc1cn(CCCCn2cc(C(=O)NCC3CCCCC3)nn2)nn1` [Example 286, N-(cyclohexylmethyl)-1-[4-(4-{2-[3-(trifluoromethoxy)phenyl]acetamido}-1H-1,2,3-triazol-1-yl)butyl]-1H-1,2,3-triazole-4-carboxamide], the pIC50 in experiment [1] is over 7.00. The pEC50 with A549 cells (A549, 72 h) was 6.30 to 7.00.

Regarding `O=C(CC1CCCC1)Nc1cn(CCCCn2cc(C(=O)NCC3CCCC3)nn2)nn1` [Example 288, 1-{4-[4-(2-cyclopentylacetamido)-1H-1,2,3-triazol-1-yl]butyl}-N-(cyclopentylmethyl)-1H-1,2,3-triazole-4-carboxamide], in experiment [1], the pIC50 is 6.30 to 7.00. Also, the negative-log EC50 (pEC50) in the experiment with A549 cells (A549, 72 h) was 5.30 to 6.30.

Regarding `O=C(Cc1cccc(OC(F)(F)F)c1)Nc1cn(CCCCn2cc(C(=O)NCC3CCCC3)nn2)nn1` [Example 292, N-(cyclopentylmethyl)-1-[4-(4-{2-[3-(trifluoromethoxy)phenyl]acetamido}-1H-1,2,3-triazol-1-yl)butyl]-1H-1,2,3-triazole-4-carboxamide], in experiment [1], the pIC50 was 6.30 to 7.00. This compound had a pEC50 in the experiment with A549 cells (A549, 72 h) of 5.30 to 6.30.
